Data reported in patent US4209442A, “Angiotensin II analogs and process for the preparation thereof” (Richter Gedeon Vegyeszeti Gyar Rt., priority 1977, dated 1980).

System: hypertension induced by angiotensin II
Experiment: Decrease in blood pressure after intravenous administration, under i.v. infusion of angiotensin II
Format: in vivo, tomcats
Settings: single dose, angiotensin II infusion 0.5 μg/kg/min, average of 6 experiments
Experimental: The antagonistic activity of the compounds having the formula I was tested on tomcats. The blood pressure was measured on the cervical artery. The tests were performed by introducing a Hypertension (CIBA) infusion into a lateral femoral vane at a speed of 0.5 μg/kg/min. When the increase in blood pressure was stabilized, the aqueous, physiological or carrier-containing solutions of the test compounds and Saralasin were administered in a single dose, intravenously or subcutaneously, and the decrease in blood pressure was measured. In the Table 1 the decrease in the arterial blood pressure under the influence of an intravenous administration of the test compounds is illustrated. For comparision Saralasin is used. The data set forth in the Table 1 were obtained by calculating the average of the results of 6 experiments. The margins of error indicate the scatter of the main value.

CNCC(=O)N[C@@H](CCCN=C(N)N)C(=O)N[C@H](C(=O)N[C@@H](Cc1ccc(O)cc1)C(=O)N[C@H](C(=O)N[C@@H](Cc1cnc[nH]1)C(=O)N1CCC[C@H]1C(=O)N[C@@H](C)C(=O)O)C(C)C)C(C)C [Saralasin, reference compound]
Decrease in blood pressure (mmHg) after administration of 10 μg/kg i.v. doses: -41 ± 2.5 mmHg

(Hydroxyacetyl^1,Thr(Me)^8)-angiotensin II [(Hydroxyacetyl^1,Thr(Me)^8)-AngII]
Decrease in blood pressure (mmHg) after administration of 10 μg/kg i.v. doses: -33 ± 5.3 mmHg | Decrease in blood pressure (mmHg) after administration of 20 /μg/kg i.v. doses (20 μg/kg i.v.): -38 ± 4.1 mmHg
